Data: PubChem BioAssay AID602404 (Sanford-Burnham Center for Chemical Genomics, 2012)
Calls of active or inactive are those of the source. No rule for the calls is given here.

Target: Ubiquitin-conjugating enzyme E2 N (Homo sapiens) (UniProt P61088)
Assay: inhibition of UBC13-driven polyubiquitin chain formation – biochemical, TR-FRET, set 4, SAR follow-up (AID 602404)
Settings: UBC13 polyubiquitination

Ubiquitin-conjugating enzyme E2 N (Homo sapiens), sequence (P61088 whole entry, looked up): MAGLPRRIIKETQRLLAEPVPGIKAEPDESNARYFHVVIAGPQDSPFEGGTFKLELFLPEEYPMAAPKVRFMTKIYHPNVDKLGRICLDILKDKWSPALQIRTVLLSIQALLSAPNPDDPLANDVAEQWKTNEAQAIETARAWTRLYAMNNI

| Structure (SMILES) | IC50 |
| --- | --- |
| Cc1ccc(NC(=O)C2CCCN(c3ncnc4c3nc3n4CCCCC3)C2)cc1F (stereo not drawn) | inactive |
| CN(CCNC(=O)C1CCN(c2ncnc3c2nc2n3CCCCC2)CC1)Cc1ccccc1 | 1.23 µM |
| O=C(NCc1ccc(Cl)c(Cl)c1)C1CCN(c2ncnc3c2nc2n3CCCCC2)CC1 | > 100 µM (inactive) |
| O=C(NCc1ccc(Cl)c(Cl)c1)C1CCN(c2ncnc3c2nc2n3CCCC2)CC1 | > 100 µM (inactive) |
| Cc1ccc(NC(=O)C2CCCN(c3ncnc4c3nc3n4CCCC3)C2)cc1Br (stereo not drawn) | inactive |
| O=C(NCCCN1CCCCC1)C1CCN(c2ncnc3c2nc2n3CCCCC2)CC1 | 3.42 µM |
| Cc1ccc(NC(=O)C2CCCN(c3ncnc4c3nc3n4CCCC3)C2)cc1F (stereo not drawn) | inactive |
| O=C(NCC1CCN(Cc2ccc(F)cc2)CC1)C1CCCN(c2ncnc3c2nc2n3CCCCC2)C1 (stereo not drawn) | 2.87 µM |
| Cc1cccc(NC(=O)C2CCCN(c3ncnc4c3nc3n4CCCC3)C2)c1 (stereo not drawn) | inactive |
| Cc1cc(C)cc(NC(=O)C2CCCN(c3ncnc4c3nc3n4CCCC3)C2)c1 (stereo not drawn) | inactive |
| O=C(NCC1CCN(Cc2cccc(Cl)c2)CC1)[C@@H]1CCCN(c2ncnc3c2nc2n3CCCCC2)C1 | 3.37 µM |
| O=C(NCc1ccc(Cl)c(Cl)c1)C1CCCN(c2ncnc3c2nc2n3CCCC2)C1 (stereo not drawn) | inactive |
| COc1ccc(Cl)cc1NC(=O)C1CCN(c2ncnc3c2nc2n3CCCCC2)CC1 | inactive |
| O=C(C1CCN(c2ncnc3c2nc2n3CCCCC2)CC1)N1CCN(Cc2ccccc2)CC1 | 3.05 µM |
| O=C(C1CCN(c2ncnc3c2nc2n3CCCCC2)CC1)N1CCN(c2ncccn2)CC1 | inactive |
| Cc1cc(C)cc(NC(=O)C2CCN(c3ncnc4c3nc3n4CCCCC3)CC2)c1 | > 100 µM (inactive) |
| O=C(NCCCN1CCN(c2ccccc2)CC1)C1CCCN(c2ncnc3c2nc2n3CCCCC2)C1 (stereo not drawn) | 3.06 µM |
| Cc1cccc(NC(=O)C2CCN(c3ncnc4c3nc3n4CCCC3)CC2)c1 | inactive |
| O=C(NCC1CCN(Cc2ccc(Cl)c(Cl)c2)CC1)C1CCCN(c2ncnc3c2nc2n3CCCC2)C1 (stereo not drawn) | 5.74 µM |

| Structure (SMILES) | IC50 |
| --- | --- |
| Cc1cccc(NC(=O)C2CCCN(c3ncnc4c3nc3n4CCCCC3)C2)c1 (stereo not drawn) | > 100 µM (inactive) |
| CC1CCCC(C)N1CCCNC(=O)C1CCCN(c2ncnc3c2nc2n3CCCCC2)C1 (stereo not drawn) | 8.74 µM |
| O=C(NCc1cccc(Cl)c1)C1CCCN(c2ncnc3c2nc2n3CCCCC2)C1 (stereo not drawn) | inactive |
| O=C(NCC1CCN(Cc2cccc(Cl)c2)CC1)[C@H]1CCCN(c2ncnc3c2nc2n3CCCC2)C1 | 2.66 µM |
| O=C(Nc1ccc(CN2CCCCC2)cc1)C1CCN(c2ncnc3c2nc2n3CCCCC2)CC1 | inactive |
| O=C(C1CCN(c2ncnc3c2nc2n3CCCCC2)CC1)N1CCN(c2ccccc2)CC1 | inactive |
| Cc1ccc(C)c(N2CCN(CCCNC(=O)C3CCCN(c4ncnc5c4nc4n5CCCCC4)C3)CC2)c1 (stereo not drawn) | 9.51 µM |
| Cc1c(Cl)cccc1NC(=O)C1CCN(c2ncnc3c2nc2n3CCCCC2)CC1 | 11.8 µM |
| O=C(NCC1CCN(Cc2ccc(Cl)cc2)CC1)C1CCCN(c2ncnc3c2nc2n3CCCCC2)C1 (stereo not drawn) | 2.75 µM |
| Cc1ccc(NC(=O)C2CCN(c3ncnc4c3nc3n4CCCC3)CC2)cc1Br | inactive |
| O=C(NCC1CCN(Cc2ccccc2Cl)CC1)C1CCCN(c2ncnc3c2nc2n3CCCCC2)C1 (stereo not drawn) | 2.28 µM |
| Cc1cc(C)cc(NC(=O)C2CCCN(c3ncnc4c3nc3n4CCCCC3)C2)c1 (stereo not drawn) | inactive |
| O=C(NCCCN1CCN(c2ccc(F)cc2)CC1)C1CCCN(c2ncnc3c2nc2n3CCCCC2)C1 (stereo not drawn) | 2.22 µM |
| Cc1ccc(C)c(CN2CCC(CNC(=O)C3CCCN(c4ncnc5c4nc4n5CCCCC4)C3)CC2)c1 (stereo not drawn) | 2.69 µM |
| Cc1ccc(NC(=O)C2CCCN(c3ncnc4c3nc3n4CCCCC3)C2)cc1Br (stereo not drawn) | > 100 µM (inactive) |
| Cc1cc(Cl)ccc1NC(=O)C1CCN(c2ncnc3c2nc2n3CCCCC2)CC1 | inactive |
| O=C(NCc1cccc(Cl)c1)C1CCN(c2ncnc3c2nc2n3CCCC2)CC1 | 12.6 µM |
| O=C(NCc1ccc(Cl)c(Cl)c1)C1CCCN(c2ncnc3c2nc2n3CCCCC2)C1 (stereo not drawn) | > 100 µM (inactive) |
| COc1cc(Cl)c(C)cc1NC(=O)C1CCN(c2ncnc3c2nc2n3CCCCC2)CC1 | > 100 µM (inactive) |
